Where “and” joins values, the source holds several entries; their conditions need not be identical. Identical values can stand only once. Toxic doses and inconclusive results are not listed.
Test system: BDF1 mice, Lewis lung carcinoma iv, survival T/C
Test: NCI In Vivo Anticancer Drug Screen. Data for tumor model Lewis Lung Carcinoma (intravenous) in B6D2F1 (BDF1) mice
Details: endpoint: median survival time, higher = longer survival
Method: The antitumor activity of compounds was measured in mice bearing transplantable tumors. Survival or tumor size were measured and the results are expressed as the measurement made in the treated group (T) divided by the measurement made in the vehicle treated control group (C). The tumor model used in this assay is Lewis Lung Carcinoma (intravenous) in B6D2F1 (BDF1) mice

[1] = dose: 100.0 mg/kg/injection, schedule: Q01DX009 (ip), vehicle: Klucel (hydroxypropylcellulose) (HPC)
[2] = dose: 12.5 mg/kg/injection, schedule: Q01DX009 (ip), vehicle: saline with Tween-80
[3] = dose: 25.0 mg/kg/injection, schedule: Q01DX009 (ip), vehicle: saline with Tween-80
[4] = dose: 50.0 mg/kg/injection, schedule: Q01DX009 (ip), vehicle: saline with Tween-80
[5] = dose: 100.0 mg/kg/injection, schedule: Q01DX009 (ip), vehicle: saline with Tween-80
[6] = dose: 200.0 mg/kg/injection, schedule: Q01DX009 (ip), vehicle: saline with Tween-80
[7] = dose: 0.25 mg/kg/injection, schedule: Q01DX009 (ip), vehicle: saline
[8] = dose: 25.0 mg/kg/injection, schedule: Q01DX009 (ip), vehicle: Klucel (hydroxypropylcellulose) (HPC)
[9] = dose: 50.0 mg/kg/injection, schedule: Q01DX009 (ip), vehicle: Klucel (hydroxypropylcellulose) (HPC)

`CS(C)=O` was tested, and the T/C (dose: 1.5 grams/kg/injection, schedule: Q01DX009 (ip), vehicle: saline) was 98 % of control, the T/C (dose: 3.0 grams/kg/injection, schedule: Q01DX009 (ip), vehicle: saline) was 96 % of control and the T/C (dose: 6.0 grams/kg/injection, schedule: Q01DX009 (ip), vehicle: saline) was 96 % of control.

For `Cc1cc(O)c(C(C)C)cc1S(=O)(=O)O` (tested in a mixture with another compound), the T/C [1] was 90 % of control and the T/C (dose: 200.0 mg/kg/injection, schedule: Q01DX009 (ip), vehicle: Klucel (hydroxypropylcellulose) (HPC)) was 102 % of control.

With `O=C1NC(=O)/C(=C/C=C/c2ccccc2)S1` the T/C [2] was 95 % of control, the T/C [3] was 104 % of control and the T/C [4] was 101 % of control. For the same compound, the T/C [5] was 95 % of control, the T/C [6] was 105 % of control and the T/C (dose: 400.0 mg/kg/injection, schedule: Q01DX009 (ip), vehicle: saline with Tween-80) was 104 % of control.

For `N[C@@H](Cc1ccc(N(CCCl)CCCl)cc1)C(=O)O`, the T/C [7] was 92 % of control, the T/C (dose: 0.5 mg/kg/injection, schedule: Q01DX009 (ip), vehicle: saline) was 99 % of control and 102 % of control and 103 % of control and the T/C (dose: 1.0 mg/kg/injection, schedule: Q01DX009 (ip), vehicle: saline) was 104 % of control and 105 % of control and 109 % of control. For the same compound, the T/C (dose: 1.95 mg/kg/injection, schedule: Q04DX003 (ip), vehicle: saline) was 92 % of control, the T/C (dose: 2.0 mg/kg/injection, schedule: Q01DX009 (ip), vehicle: saline) was 96 % of control and 110 % of control and 117 % of control and the T/C (dose: 3.24 mg/kg/injection, schedule: Q04DX003 (ip), vehicle: saline) was 98 % of control. The T/C (dose: 3.4 mg/kg/injection, schedule: Q04DX003 (ip), vehicle: saline) was 100 % of control, the T/C (dose: 4.0 mg/kg/injection, schedule: Q01DX009 (ip), vehicle: saline) was 112 % of control and 114 % of control and the T/C (dose: 4.9 mg/kg/injection, schedule: Q04DX003 (ip), vehicle: saline) was 106 % of control. For the same compound, the T/C (dose: 5.4 mg/kg/injection, schedule: Q04DX003 (ip), vehicle: saline) was 100 % of control, the T/C (dose: 8.0 mg/kg/injection, schedule: Q01DX009 (ip), vehicle: saline) was 113 % of control and the T/C (dose: 9.0 mg/kg/injection, schedule: Q04DX003 (ip), vehicle: saline) was 154 % of control. For the same compound, the T/C (dose: 14.3 mg/kg/injection, schedule: Q04DX003 (ip), vehicle: saline) was 122 % of control.

With `C[C@H](N)C(=O)N[C@@H]1[C@H]2C(=C(O)C[C@@H](O)[C@@H]2O)C(=O)O[C@]1(C)C(Cl)Cl` the T/C (dose: 0.38 mg/kg/injection, schedule: Q01DX009 (ip), vehicle: Klucel (hydroxypropylcellulose) (HPC)) was 101 % of control, the T/C (dose: 0.75 mg/kg/injection, schedule: Q01DX009 (ip), vehicle: Klucel (hydroxypropylcellulose) (HPC)) was 102 % of control and the T/C (dose: 1.5 mg/kg/injection, schedule: Q01DX009 (ip), vehicle: Klucel (hydroxypropylcellulose) (HPC)) was 108 % of control.

In the case of `CCCCCCCCCCCCOP(N)(=O)OCCCCCCCCCCCC`, the T/C [3] is reported as 97 % of control, the T/C [4] is reported as 93 % of control and the T/C [5] is reported as 91 % of control.

For `CC1(CO)C(O)CCC2(C)C1CCC1CC3CC12CCC3(O)CO` (centres undefined), the T/C (dose: 6.25 mg/kg/injection, schedule: Q01DX009 (ip), vehicle: saline with Tween-80) was 87 % of control, the T/C [2] was 97 % of control and the T/C [3] was 110 % of control. For the same compound, the T/C [6] was 106 % of control.

In the case of `O[C@H](CN1CC1)[C@@H](O)CN1CC1`, the T/C (dose: 0.13 mg/kg/injection, schedule: Q01DX009 (ip), vehicle: saline) is reported as 111 % of control and the T/C [7] is reported as 121 % of control.

With `CCOC(=O)c1c[nH]c2oc(/C=N/N3CC(CN4CCOCC4)OC3=O)cc2c1=O` (centres undefined) the T/C (dose: 6.25 mg/kg/injection, schedule: Q01DX009 (ip), vehicle: suspension in saline) was 108 % of control, the T/C (dose: 12.5 mg/kg/injection, schedule: Q01DX009 (ip), vehicle: suspension in saline) was 105 % of control and the T/C (dose: 25.0 mg/kg/injection, schedule: Q01DX009 (ip), vehicle: suspension in saline) was 104 % of control. For the same compound, the T/C (dose: 50.0 mg/kg/injection, schedule: Q01DX009 (ip), vehicle: suspension in saline) was 114 % of control and the T/C (dose: 100.0 mg/kg/injection, schedule: Q01DX009 (ip), vehicle: suspension in saline) was 106 % of control.

In the case of `O=S(=O)(c1ccc(NC(C(O)C(O)C(O)C(O)CO)S(=O)(=O)O)cc1)c1ccc(NC(C(O)C(O)C(O)C(O)CO)S(=O)(=O)O)cc1` (centres undefined), the T/C (dose: 72.0 mg/kg/injection, schedule: Q01DX007 (ip), vehicle: saline) is reported as 90 % of control, the T/C (dose: 102.9 mg/kg/injection, schedule: Q01DX007 (ip), vehicle: saline) is reported as 95 % of control and the T/C (dose: 147.0 mg/kg/injection, schedule: Q01DX007 (ip), vehicle: saline) is reported as 86 % of control. The T/C (dose: 210.0 mg/kg/injection, schedule: Q01DX007 (ip), vehicle: saline) was 96 % of control and the T/C (dose: 300.0 mg/kg/injection, schedule: Q01DX007 (ip), vehicle: saline) was 94 % of control.

With `Cc1ccccc1N(CC1CO1)CC1CO1` (centres undefined) the T/C (dose: 12.5 mg/kg/injection, schedule: Q01DX009 (ip), vehicle: saline) was 106 % of control, the T/C (dose: 25.0 mg/kg/injection, schedule: Q01DX009 (ip), vehicle: saline) was 103 % of control and the T/C (dose: 50.0 mg/kg/injection, schedule: Q01DX009 (ip), vehicle: saline) was 109 % of control. The T/C (dose: 100.0 mg/kg/injection, schedule: Q01DX009 (ip), vehicle: saline) was 100 % of control and the T/C (dose: 200.0 mg/kg/injection, schedule: Q01DX009 (ip), vehicle: saline) was 110 % of control.

`[N-]=[N+]=C1N=CN=C1c1ncn[nH]1` was tested, and the T/C (dose: 3.12 mg/kg/injection, schedule: Q01DX009 (ip), vehicle: Klucel (hydroxypropylcellulose) (HPC)) was 98 % of control, the T/C (dose: 6.25 mg/kg/injection, schedule: Q01DX009 (ip), vehicle: Klucel (hydroxypropylcellulose) (HPC)) was 100 % of control and the T/C (dose: 12.5 mg/kg/injection, schedule: Q01DX009 (ip), vehicle: Klucel (hydroxypropylcellulose) (HPC)) was 95 % of control. The T/C [8] was 120 % of control and the T/C [9] was 97 % of control.

In the case of `CCN1/C(=C/C=C/C=C\C=C\c2sc3ccc4ccccc4c3[n+]2CC)Sc2ccc3ccccc3c21`, the T/C (dose: 0.08 mg/kg/injection, schedule: Q01DX009 (ip), vehicle: saline with Tween-80) is reported as 101 % of control, the T/C (dose: 0.16 mg/kg/injection, schedule: Q01DX009 (ip), vehicle: saline with Tween-80) is reported as 104 % of control and the T/C (dose: 0.31 mg/kg/injection, schedule: Q01DX009 (ip), vehicle: saline with Tween-80) is reported as 98 % of control. For the same compound, the T/C (dose: 0.62 mg/kg/injection, schedule: Q01DX009 (ip), vehicle: saline with Tween-80) was 104 % of control, the T/C (dose: 1.25 mg/kg/injection, schedule: Q01DX009 (ip), vehicle: saline with Tween-80) was 105 % of control and the T/C (dose: 2.5 mg/kg/injection, schedule: Q01DX009 (ip), vehicle: saline with Tween-80) was 105 % of control.

`CCC/C=C/C=C/C(=O)OC1/C(=C/C(=O)OC)CC2CC(C(C)O)OC(=O)CC(O)CC3CC(OC(C)=O)C(C)(C)C(O)(CC4C/C(=C/C(=O)OC)CC(/C=C/C(C)(C)C1(O)O2)O4)O3` (centres undefined) was tested, and the T/C (dose: 18.75 micrograms/kg/injection, schedule: Q01DX009 (ip), vehicle: saline + alcohol) was 90 % of control, the T/C (dose: 37.5 micrograms/kg/injection, schedule: Q01DX009 (ip), vehicle: saline + alcohol) was 98 % of control and the T/C (dose: 75.0 micrograms/kg/injection, schedule: Q01DX009 (ip), vehicle: saline + alcohol) was 107 % of control.

In the case of `O=c1[nH]c(=O)n([C@H]2CCCO2)cc1F`, the T/C [8] is reported as 106 % of control, the T/C [9] is reported as 104 % of control and the T/C [1] is reported as 100 % of control.

For `CC(C)NNC(=O)c1ccncc1`, the T/C (dose: 19.4 mg/kg/injection, schedule: Q01DX007 (ip), vehicle: Klucel (hydroxypropylcellulose) (HPC)) was 95 % of control, the T/C (dose: 32.4 mg/kg/injection, schedule: Q01DX007 (ip), vehicle: Klucel (hydroxypropylcellulose) (HPC)) was 91 % of control and the T/C (dose: 54.0 mg/kg/injection, schedule: Q01DX007 (ip), vehicle: Klucel (hydroxypropylcellulose) (HPC)) was 95 % of control. For the same compound, the T/C (dose: 90.0 mg/kg/injection, schedule: Q01DX007 (ip), vehicle: Klucel (hydroxypropylcellulose) (HPC)) was 96 % of control and the T/C (dose: 150.0 mg/kg/injection, schedule: Q01DX007 (ip), vehicle: Klucel (hydroxypropylcellulose) (HPC)) was 91 % of control.

`CCCCCCCCCCCCCCC/C([O-])=N/[N+](C)(C)CC(C)O` (centres undefined) was tested, and the T/C (dose: 12.5 mg/kg/injection, schedule: Q01DX001 (ip), vehicle: saline) was 95 % of control, the T/C (dose: 25.0 mg/kg/injection, schedule: Q01DX001 (ip), vehicle: saline) was 96 % of control and the T/C (dose: 50.0 mg/kg/injection, schedule: Q01DX001 (ip), vehicle: saline) was 97 % of control. For the same compound, the T/C (dose: 100.0 mg/kg/injection, schedule: Q01DX001 (ip), vehicle: saline) was 104 % of control, the T/C (dose: 200.0 mg/kg/injection, schedule: Q01DX001 (ip), vehicle: saline) was 108 % of control and the T/C (dose: 400.0 mg/kg/injection, schedule: Q01DX001 (ip), vehicle: saline) was 102 % of control.

Source: PubChem BioAssay AID274 (DTP/NCI, 2004)
